{"source": "patent US20050119224A1", "about": "“Use of n-acetyl-d-glucosamine in the manufacture of pharmaceutical useful for adjuvant treatment of perianal disease” (priority 2001, published 2005)", "key": {"[1]": {"tested_on": "Pseudomonas aeruginosa", "test": "Test of resistance to field planting (Pseudomonas aeruginosa planting model)", "type": "in vivo, Mice of Kunming Species", "details": "three dosages (high, middle, low), infused abdominally each day, feces culture", "from_the_text": "1. Animal: Mice of Kunming Species, Provided by the 3rd Military Medical University P.R. China.\nFirstly, the animals used for experiment were infused abdominally with a suspension of Pseudomonas aeruginosa so as to make a Pseudomonas aeruginosa planting model, the mice that have Pseudomonas aeruginosa in the feces specimen cultured continuously for three days are deemed as positive. 32 mices which were positive in the experiment for making model were selected and divided into four groups, that is, three experimental groups with different dosages and one control group, eight mice in each group. The experimental groups are infused abdominally with N-acetyl-D glucosamine each day according to a schedule, while the control group is infused with saline solution. Cultivate the excrement every day, observe the saturation of Pseudomonas aeruginosa planting growth."}, "[2]": {"tested_on": "liver lysosome membrane", "test": "Test of stabilizing lysosome membrane (rat model of endotoxin shock)", "type": "in vivo, wistar rat", "details": "rat with endotoxin shock, versus saline control", "from_the_text": "• 1. Animals: wistar rat, provided by the 3rd Military Medical University P.R. China. • 2. Method: setting up a rat model of endotoxin shock, at the same time, for the liver lysosome of rat, carry out a test of stabilizing membranes in vivo and in vitro. The model animals were divided into two groups, in the experimental group, N-acetyl-D-glucosamine was used to carry out the treatment, in the control group, saline solution was used to carry out the same treatment. The condition of liver lysosome mambrane was reflected by the activity of acidic phosphatase (ACP). • 3. Result: the activity of free ACP in the control group and that in the experimental group are obviously different. • 4. […] V. Human on Trial"}, "[3]": {"test": "Human on trial (clinic test, peri-anal diseases)", "type": "in vivo", "details": "pharmaceutical preparations made from the compound, humans suffering from peri-anal diseases"}}}
{"compound": "CC(=O)N[C@@H]1[C@@H](O)[C@H](O)[C@@H](CO)O[C@H]1O", "note": "[compound of formula (I), N-acetyl-D-glucosamine]", "values": [{"measurement": "resistance to Pseudomonas aeruginosa planting in intestines", "setting": "[1]", "value": "able to effectively resist Pseudomonas aeruginosa in intestines"}, {"measurement": "stabilization of liver lysosome membrane", "setting": "[2]; in vivo and in vitro", "value": "able to effectively stabilize liver lysosome membrane"}, {"measurement": "release of acidic phosphatase (ACP)", "setting": "[2]; liver lysosome", "value": "decrease the release of acidic phosphatase"}, {"measurement": "relief of peri-anal symptoms", "setting": "[3]", "value": "able to eliminate or relieve quickly the peri-anal uncomfortableness, pain, exudation, pruritus and the like"}]}
